# Laboratory results: patent US20260148853A1, “UQCC2-BASED COMPUTER-ASSISTED METHOD, SYSTEM, AND DEVICE FOR DIAGNOSING OSIMERTINIB-RESISTANT LUNG CANCER, PREDICTING DRUG THERAPEUTIC EFFECTS, AND SCREENING DRUGS TARGETED FOR OSIMERTINIB-RESISTANT LUNG CANCER” (THE SECOND HOSPITAL OF DALIAN MEDICAL UNIVERSITY, priority 2024, published 2026)
# d = 2'-deoxy (DNA)
# What was measured:
# Format in all cases: cell-based
# [1] = test system: UQCC2; assay: western blot of UQCC2 protein expression in NCI-H1975/OR cells treated with Ctrl, Osim or Lomi; conditions: NCI-H1975/OR cells (osimertinib-resistant), lomitapide alone vs Osim and Ctrl, FIG. 9
# Protocol: In a specific embodiment, the protein expression levels of UQCC2 in the NCI-H1975 cells and the NCI-H1975/OR cells (Ctrl) were determined by western blot assay, or the like. The NCI-H1975/OR cells (Ctrl) were osimertinib-resistant cells. The western blot assay used anti-UQCC2 (antibody dilution ratio of 1:1000, Proteintech, #25781-1-AP). Anti-GAPDH (antibody dilution ratio of 1:50,000, Proteintech, #60004-1-Ig) was used as a loading control. Significance (denoted as P) was determined using GraphPad Prism software, etc. All statistical analyses were performed using data from at least three independent experiments. […] “*” refers to a marker sign of significance.
# In a specific embodiment, the protein expression of UQCC2 in the NCI-H1975/OR cells (treated with Ctrl, Osim, or Lomi alone) was determined by western blot assay. The western blot assay was performed using the following antibody: anti-UQCC2 (antibody dilution ratio of 1:1000, Proteintech, #25781-1-AP). Anti-GAPDH (antibody dilution ratio of 1:50,000, Proteintech, #60004-1-Ig) was used as a loading control. Significance was calculated using GraphPad Prism software, etc.
# [2] = test system: UQCC2; assay: western blot of UQCC2 after siRNA knockdown of METTL3 in H1975/OR cells; conditions: FIG. 11B
# Text: (§1) In one embodiment, the correlation between METTL3 and UQCC2 expression was investigated by western blot assay after knockdown of the gene expression of METTL3 or UQCC2 in H1975/OR cells through small interfering RNA (siRNA), etc. The knockdown may be a partial reduction in the expression level of a specific gene.
# (§2) siMETTL3 (5′-3′) (siRNA for METTL3 gene knockdown): sense strand GCACUUGGAUCUACGGAAU(dT)(dT); antisense strand AUUCCGUAGAUCC AAGUGC(dT)(dT); siUQCC2 (5′-3′) (siRNA for UQCC2 gene knockdown): sense strand: […], antisense strand: […].
# (§3) In some embodiments, the western blot assay was performed using the following antibodies: anti-METTL 3 (antibody dilution ratio of 1:2000; #15073-1-AP; Proteintech) and anti-UQCC2 (antibody dilution ratio of 1:1000, Proteintech, #25781-1-AP). Anti-GAPDH (antibody dilution ratio 1:50,000, Proteintech, #60004-1-Ig) was used as a loading control. Significance was calculated using GraphPad Prism software, etc.
# [3] = test system: METTL3; assay: western blot of METTL3 after siRNA knockdown of UQCC2 in H1975/OR cells; conditions: FIG. 11C
# Text: as §1, §2, §3
# [4] = test system: autophagosome marker LC3; assay: immunofluorescence assay of LC3 after UQCC2 knockdown in H1975/OR cells; conditions: FIG. 12
# Protocol: In one embodiment, the expression of the autophagosome marker LC3 was analyzed by the immunofluorescence assay after the UQCC2 knockdown in H1975/OR cells. siUQCC2 (5′-3′): sense strand: […]; antisense strand: […].
# In some embodiments, the H 1975/OR cells may be fixed with 4% formaldehyde, permeabilized with 0.2% Triton X-100, and blocked with 5% bovine serum albumin. The cells were then incubated with the indicated antibodies at 4° C. overnight and stained with fluorescently coupled secondary antibodies and DAPI solution. The H1975/OR cells were photographed under a fluorescence microscope (Leica DM6B Thunder). Anti-LC3 (antibody dilution ratio of 1:100; antibody used was Proteintech, No. 81004-1-RR).
# [5] = test system: autophagosome markers LC3 and p62; assay: western blot of autophagosome markers after UQCC2 knockdown in H1975/OR cells; conditions: FIG. 11
# Protocol: In a specific embodiment, the impact of UQCC2 knockdown in H1975/OR cells on the expression of the autophagosome markers LC3 and p62 was investigated by western blot assay. siUQCC2 (5′-3′): sense strand: […]; antisense strand: […].
# In some embodiments, the western blot assay was performed using the following antibodies: anti-UQCC 2 (antibody dilution ratio of 1:1000, Proteintech, #25781-1-AP), anti-LC3 (antibody dilution ratio of 1:2000; #81004-1-RR; Proteintech), and anti-p 62 (antibody dilution ratio of 1:5000; #80294-1-RR; Proteintech). Anti-GAPDH (Antibody dilution ratio 1:50,000, Proteintech, #60004-1-Ig) was used as a loading control. Significance was calculated using GraphPad Prism software, etc.
molecule,measurement,setting,value
O=C(NC1CCN(CCCCC2(C(=O)NCC(F)(F)F)c3ccccc3-c3ccccc32)CC1)c1ccccc1-c1ccc(C(F)(F)F)cc1 [lomitapide],protein expression of UQCC2,[1],significantly reduced
"siMETTL3: siRNA for METTL3 gene knockdown; sense strand GCACUUGGAUCUACGGAAU(dT)(dT) (antisense AUUCCGUAGAUCCAAGUGC; sense: 3' dTdT, sugars by position and backbone not given here; antisense: chemistry not given here)",expression of UQCC2,[2],downregulates
"siUQCC2: siRNA for UQCC2 gene knockdown; sense strand GACUCCAUUCAAACUACUATT, antisense strand UAGUAGUUUUGAAUGGAGUCTT (chemistry not fully specified)",expression of METTL3,[3],does not affect
same,autophagy,[4],significantly activated
same,expression of autophagosome marker LC3,[4],up-regulation
same,autophagy,[5],significantly activated
same,expression of autophagosome marker LC3,[5],upregulation
same,expression of autophagosome marker p62,[5],upregulation
